Results published in patent publication US20170305882A1, “BENZYL SUBSTITUTED INDAZOLES AS BUB1 KINASE INHIBITORS” (Bayer Pharma Aktiengesellschaft, priority 2014, published 2017).
Where two headings read alike, the source gives them in different places.

Experiments:
[1] = target: T1, (recombinant) catalytic domain of human Bub1 (amino acids 704-1085) (Homo sapiens, UniProt O43683); test: Bub1 kinase assay (TR-FRET); assay type: biochemical
T1 construct: catalytic domain of human Bub1 (amino acids 704-1085); 6xHis (N); made in house; host or cells: Hi5 insect cells

[2] = system: histone 2A phosphorylation (kinase activity of Bub1); test: H2A Formation-Assay (cell-based mechanistic assay, co-treatment with Nocodazole); conditions: 16 h, read-out: Biological Assay 4.1: H2A Formation IC50
Method: Cell-Based Mechanistic Assay: Changes of Phosphorylation Status of Histone 2A by Inhibition of Kinase Activity of Bub1
This assay determines the suppression of histone 2A phosphorylation by a Bub1 kinase inhibitor during co-treatment with Nocodazole. 25000 cells (cells were ordered from ATCC) were seeded in 96well plate for 5 h at 37° C. Cells were treated with Nocodazole (1 μg/ml) and varying concentrations (between 3 nM and 10 μM) of test compounds for 16 h. Cells were fixed (20 min, Fixing solution R&D), washed three times with PBS and blocked with Odyssey blocking buffer before incubating with the primary antibody against phosphorylated H2A (5 μg/ml ABIN482721) overnight at 2-8° C. After washing, secondary IRDye-labeled antibody mix with cell stains was added for 1 h and washed again with PBS. Plates were scanned with LICor Odyssey Infrared Imager CLx at 800 nm for P-H2A and at 700 nm for cell stains Draq5/Sapphire. The quotient of 800 nm and 700 nm for Nocodazole only treated cells was set as 100% and the quotient of 800 nm and 700 nm of untreated cells was set as 0%. […] The IC50 values were determined by means of a 4 parameter fit.

[3] = system: pre-induced phospho-histone 2A (kinase activity of Bub1); test: H2A Abrogation-Assay (cell-based mechanistic assay, pre-treatment with Nocodazole); conditions: Nocodazole 16 h, then test compound 1 h; read-out: Biological Assay 4:2: H2A Abrogation IC50
Text: Biological Assay 4.2: Abrogation-Assay
This assay measures the inhibition of histone 2A phosphorylation, which was induced by pre-treatment of the cells with Nocodazole, by a Bub1 kinase inhibitor.

[4] = system: HeLa human cervical tumor cells; test: Proliferation Assay (HeLa + Paclitaxel); assay type: cell-based; conditions: 3 nM paclitaxel, test substance 92 hours; read-out: Biological Assay 3: Proliferation Assay (HeLa + Paclitaxel) IC50
Text: Proliferation Assay (HeLa+Paclitaxel):

[5] = system: HeLa human cervical tumor cells; test: Proliferation assay (HeLa cell line); assay type: cell-based; conditions: 96 h, 4 days incubation, crystal violet, read-out: Biological Assay 2: Proliferation assay (HeLa cell line) median IC50
Text: Human tumour cells were originally obtained from the American Type Culture Collection (ATCC), the Deutsche Sammlung von Mikroorganismen und Zellkulturen (DSMZ, German Collection of Microorganisms and Cell Cultures), or Epo GmbH Berlin.

[6] = ATP 10 μM, 60 min reaction, pH 7.5, read-out: Biological Assay 1: Bub1 kinase assay median IC50

T1 sequence (O43683 704-1085): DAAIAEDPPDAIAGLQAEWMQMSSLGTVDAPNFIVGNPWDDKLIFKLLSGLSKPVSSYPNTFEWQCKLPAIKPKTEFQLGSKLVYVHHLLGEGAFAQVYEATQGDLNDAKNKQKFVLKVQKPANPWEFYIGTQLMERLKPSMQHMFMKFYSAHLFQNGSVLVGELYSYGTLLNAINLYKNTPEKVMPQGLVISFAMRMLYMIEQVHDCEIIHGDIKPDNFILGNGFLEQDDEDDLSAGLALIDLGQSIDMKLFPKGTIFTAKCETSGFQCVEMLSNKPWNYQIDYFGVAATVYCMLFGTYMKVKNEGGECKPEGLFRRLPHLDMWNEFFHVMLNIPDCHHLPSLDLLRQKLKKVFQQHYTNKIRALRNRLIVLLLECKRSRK

SMILES	IC50 [1, 6] [nM]	IC50 [2] [nM]	IC50 [3] [nM]	IC50 [4] [nM]	IC50 [5] [nM]	IC50 ([1]; probe of the competition assay, read-out: inhibits the kinase activity of Bub1, IC50) [nM]
CCOc1cc(F)c(Cn2nc(-c3ncc(OCCCO)c(Nc4ccnc(F)c4)n3)c3ccccc32)c(F)c1 [Example 2-1-10, 3-({2-[1-(4-ethoxy-2,6-difluorobenzyl)-1H-indazol-3-yl]-4-[(2-fluoropyridin-4-yl)amino]pyrimidin-5-yl}oxy)propan-1-ol]	15	44	23	1400	9000	
CCOc1cc(F)c(Cn2nc(-c3ncc(OCCO)c(Nc4ccncc4)n3)c3ccccc32)c(F)c1 [Example 5-6-1, 2-({2-[1-(4-ethoxy-2,6-difluorobenzyl)-1H-indazol-3-yl]-4-(pyridin-4-ylamino)pyrimidin-5-yl}oxy)ethanol, reference compound]		1100		1400		
CCOc1cc(F)c(Cn2nc(-c3ncc(OCCCO)c(Nc4ccnc(NC(C)=O)c4C)n3)c3ccccc32)c(F)c1 [Example 2-1-17, N-[4-({2-[1-(4-ethoxy-2,6-difluorobenzyl)-1H-indazol-3-yl]-5-(3-hydroxypropoxy)pyrimidin-4-yl}amino)-3-methylpyridin-2-yl]acetamide]	9.2	1.7	3.9	200	> 10000	
CCOc1cc(F)c(Cn2nc(-c3ncc(OCCCO)c(Nc4ccncc4OCC(F)(F)F)n3)c3ccccc32)c(F)c1 [Example 2-1-22, 3-[(2-[1-(4-ethoxy-2,6-difluorobenzyl)-1H-indazol-3-yl]-4-{[3-(2,2,2-trifluoroethoxy)pyridin-4-yl]amino}pyrimidin-5-yl)oxy]propan-1-ol]	5.7			180	1390	
CCOc1cc(F)c(Cn2nc(-c3ncc(OCCOCCNC(=S)Nc4ccc(-c5c6ccc(=O)cc-6oc6cc(O)ccc56)c(C(=O)O)c4)c(Nc4ccncc4)n3)c3ccccc32)c(F)c1 [Example 5-5-1, 5-[((2-[2-((2-[1-(4-ethoxy-2,6-difluorobenzyl)-1H-indazol-3-yl]-4-(pyridin-4-ylamino)pyrimidin-5-yl)oxy)ethoxy]ethyl)carbamothioyl)amino]-2-(6-hydroxy-3-oxo-3H-xanthen-9-yl)benzoic acid, reference compound]	21					20.8
CCOc1cc(F)c(Cn2nc(-c3ncc(OCCCO)c(Nc4ccncn4)n3)c3ccccc32)c(F)c1 [Example 2-1-9, 3-({2-[1-(4-ethoxy-2,6-difluorobenzyl)-1H-indazol-3-yl]-4-(pyrimidin-4-ylamino)pyrimidin-5-yl}oxy)propan-1-ol]	3.8	171	33	330	> 10000	
CCOc1cc(F)c(Cn2nc(-c3ncc(OCCCO)c(Nc4ccnc(NC(=O)C5CC5)c4)n3)c3ccccc32)c(F)c1 [Example 2-1-15, N-[4-({2-[1-(4-Ethoxy-2,6-difluorobenzyl)-1H-indazol-3-yl]-5-(3-hydroxypropoxy)pyrimidin-4-yl}amino)pyridin-2-yl]cyclopropancarboxamide]	8	37	4.6	140	3000	
OCCCOc1cnc(-c2nn(Cc3c(F)cc(OCC(F)(F)F)cc3F)c3ccccc23)nc1Nc1ccncc1Cl [Example 2-1-20, 3-[(4-[(3-chloropyridin-4-yl)amino]-2-{1-[2,6-difluoro-4-(2,2,2-trifluoroethoxy)benzyl]-1H-indazol-3-yl}pyrimidin-5-yl)oxy]propan-1-ol]	13	110	> 1000	98	6200	
Cc1nccc(Nc2nc(-c3nn(Cc4c(F)cc(OCC(F)(F)F)cc4F)c4ccccc34)ncc2OCCCO)n1 [Example 2-1-19, 3-[(2-{1-[2,6-difluoro-4-(2,2,2-trifluoroethoxy)benzyl]-1H-indazol-3-yl}-4-[(2-methylpyrimidin-4-yl)amino]pyrimidin-5-yl)oxy]propan-1-ol]	21	3.5	2.5	120	> 10000	
Cc1nccc(Nc2nc(-c3nn(Cc4c(F)cc(OCC(F)F)cc4F)c4ccccc34)ncc2OCCCO)n1 [Example 2-1-21, 3-[(2-{1-[4-(2,2-difluoroethoxy)-2,6-difluorobenzyl]-1H-indazol-3-yl}-4-[(2-methylpyrimidin-4-yl)amino]pyrimidin-5-yl)oxy]propan-1-ol]	11	26	56	170	> 10000	
CC(=O)Nc1cc(Nc2nc(-c3nn(Cc4c(F)cc(OCC(F)(F)F)cc4F)c4ccccc34)ncc2OCCCO)ccn1 [Example 2-1-25, N-(4-{[2-{1-[2,6-difluoro-4-(2,2,2-trifluoroethoxy)benzyl]-1H-indazol-3-yl}-5-(3-hydroxypropoxy)pyrimidin-4-yl]amino}pyridin-2-yl)acetamide]	19			200	1360	
COCCOc1cc(F)c(Cn2nc(-c3ncc(OCCCO)c(Nc4ccncn4)n3)c3ccccc32)c(F)c1 [Example 2-1-27, 3{[2-{1-[2,6-difluoro-4-(2-methoxyethoxy)benzyl]-1H-indazol-3-yl}-4-(pyrimidin-4-ylamino)pyrimidin-5-yl]oxy}propan-1-ol]	4					

Second part, the molecule after the results:

IC50 [1, 6] [nM]	IC50 [2] [nM]	IC50 [3] [nM]	IC50 [4] [nM]	IC50 [5] [nM]	IC50 ([1]; probe of the competition assay, read-out: inhibits the kinase activity of Bub1, IC50) [nM]	SMILES
16						CCOc1cc(F)c(Cn2nc(-c3ncc(OCCCO)c(Nc4cc(C)ncc4F)n3)c3ccccc32)c(F)c1 [Example 2-1-16, 3-({2-[1-(4-Ethoxy-2,6-difluorobenzyl)-1H-indazol-3-yl]-4-[(5-fluor-2-methylpyridin-4-yl)amino]pyrimidin-5-yl}oxy)propan-1-ol]
11	360	64	180	3900		OCCCOc1cnc(-c2nn(Cc3c(F)cc(OCC4CC4)cc3F)c3ccccc23)nc1Nc1ccncc1Cl [Example 2-1-13, 3-[(4-[(3-chloropyridin-4-yl)amino]-2-{1-[4-(cyclopropylmethoxy)-2,6-difluorobenzyl]-1H-indazol-3-yl}pyrimidin-5-yl)oxy]propan-1-ol]
21	26	17	260	3200		CCOc1cc(F)c(Cn2nc(-c3ncc(OCCCO)c(Nc4cc(C)ncc4C)n3)c3ccccc32)c(F)c1 [Example 2-1-11, 3-{[4-[(2,5-dimethylpyridin-4-yl)amino]-2-[1-(4-ethoxy-2,6-difluorobenzyl)-1H-indazol-3-yl]pyrimidin-5-yl}oxy)propan-1-ol]
12	8.4	80	100	3000		CCOc1cc(F)c(Cn2nc(-c3ncc(OCCCO)c(Nc4ccnc(C)c4)n3)c3ccccc32)c(F)c1 [Example 2-1-4, 3-({2-[1-(4-ethoxy-2,6-difluorobenzyl)-1H-indazol-3-yl]-4-[(2-methylpyridin-4-yl)amino]pyrimidin-5-yl}oxy)propan-1-ol]
15			300	2320		Cc1cc(Nc2nc(-c3nn(Cc4c(F)cc(OCC5CC5)cc4F)c4ccccc34)ncc2OCCCO)c(C)cn1 [Example 2-1-23, 3-[(2-{1-[4-(cyclopropylmethoxy)-2,6-difluorobenzyl]-1H-indazol-3-yl}-4-[(2,5-dimethylpyridin-4-yl)amino]pyrimidin-5-yl)oxy]propan-1-ol]
7	87	48	190	> 10000		CCOc1cc(F)c(Cn2nc(-c3ncc(OCCCO)c(Nc4ccnc(C)n4)n3)c3ccccc32)c(F)c1 [Example 2-1-7, 3-({2-[1-(4-ethoxy-2,6-difluorobenzyl)-1H-indazol-3-yl]-4-[(2-methylpyrimidin-4-yl)amino]pyrimidin-5-yl}oxy)propan-1-ol]
10	31	17		3700		CCOc1cc(F)c(Cn2nc(-c3ncc(OCCCO)c(Nc4ccncc4C)n3)c3ccccc32)c(F)c1 [Example 2-1-2, 3-({2-[1-(4-ethoxy-2,6-difluorobenzyl)-1H-indazol-3-yl]-4-[(3-methylpyridin-4-yl)amino]pyrimidin-5-yl}oxy)propan-1-ol]
35						CCOc1cc(F)c(Cn2nc(-c3ncc(OCCCO)c(Nc4cc(NC(C)=O)ncc4C)n3)c3ccccc32)c(F)c1 [Example 2-1-12, N-[4-({2-[1-(4-ethoxy-2,6-difluorobenzyl)-1H-indazol-3-yl]-5-(3-hydroxypropoxy)pyrimidin-4-yl}amino)-5-methylpyridin-2-yl]acetamide]
> 20000	8.7	0.92	39	> 10000		CCOc1cc(F)c(Cn2nc(-c3ncc(OCCCO)c(Nc4cc(C)nc(C)n4)n3)c3ccccc32)c(F)c1 [Example 2-1-14, 3-({4-[(2,6-Dimethylpyrimidin-4-yl)amino]-2-[1-(4-ethoxy-2,6-difluorobenzyl)-1H-indazol-3-yl]pyrimidin-5-yl}oxy)propan-1-ol]
